Measurements taken from BindingDB's records for doi:10.1016/0896-6273(94)90055-8 (Massachusetts General Hospital, 1994).

What was measured:
[1] = target: Melatonin receptor type 1A (Ovis aries, UniProt P48040)
[2] = target: T1, Melatonin receptor type 1B (Homo sapiens, UniProt P49286)
T1 sequence (P49286 whole entry): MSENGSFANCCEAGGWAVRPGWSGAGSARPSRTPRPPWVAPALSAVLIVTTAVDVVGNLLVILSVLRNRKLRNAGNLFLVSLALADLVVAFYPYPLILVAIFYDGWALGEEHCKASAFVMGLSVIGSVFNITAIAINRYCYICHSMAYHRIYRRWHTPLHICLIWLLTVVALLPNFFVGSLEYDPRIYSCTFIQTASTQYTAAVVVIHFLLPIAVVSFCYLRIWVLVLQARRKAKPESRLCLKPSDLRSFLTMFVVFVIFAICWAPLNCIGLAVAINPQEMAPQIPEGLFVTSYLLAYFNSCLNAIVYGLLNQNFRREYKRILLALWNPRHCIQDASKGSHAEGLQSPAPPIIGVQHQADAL

Sequence of Melatonin receptor type 1A (P48040 whole entry): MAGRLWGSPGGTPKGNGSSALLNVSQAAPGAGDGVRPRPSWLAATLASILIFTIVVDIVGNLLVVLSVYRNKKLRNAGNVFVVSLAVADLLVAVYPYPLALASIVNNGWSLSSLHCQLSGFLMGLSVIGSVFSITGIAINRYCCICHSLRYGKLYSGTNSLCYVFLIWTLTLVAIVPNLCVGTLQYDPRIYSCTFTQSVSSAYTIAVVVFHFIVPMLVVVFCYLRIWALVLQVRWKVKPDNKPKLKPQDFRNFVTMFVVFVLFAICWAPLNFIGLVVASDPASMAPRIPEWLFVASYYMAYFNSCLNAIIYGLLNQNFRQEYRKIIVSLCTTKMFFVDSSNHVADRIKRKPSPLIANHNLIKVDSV

| SMILES | Ki [1] [nM] | Ki [2] [nM] |
| --- | --- | --- |
| COc1ccc2[nH]c(I)c(CCNC(C)=O)c2c1 | 0.03 | – |
| COc1cc2c(CCNC(C)=O)c[nH]c2cc1Cl | 0.25 | – |
| CC(=O)n1cc(CCN)c2cc(O)ccc21 [NSC_260803] | 140 | 170 |
| NCCc1c[nH]c2ccc(O)cc12 [[3H]-5-HT] | > 10000 | – |
| COc1cc2c(CCNC(C)=O)c[nH]c2cc1O [melatonin, 6-Hydroxy] | – | 2 |
